These are literature values, as cited in patent US12575570B2, “Aqueous composition of Epyrifenacil, Mesotrione and Pyroxasulfone” (Valent U.S.A. LLC, priority 2020, dated 2026).

`CS(=O)(=O)c1ccc(C(=O)C2C(=O)CCCC2=O)c([N+](=O)[O-])c1` [mesotrione, 2-(4-mesyl-2-nitrobenzoyl)cyclohexane-1,3-dione]: the water solubility is 160 ppm.
